Test results as given in patent US11723890B2, “Methods of treatment using an mTORC1 modulator” (Navitor Pharmaceuticals, Inc., priority 2019, dated 2023).

Assays:
[1] = Example 2: single-dose pharmacokinetics in plasma and CSF; type: in vivo, human; settings: healthy males, single oral 2400 mg
Experimental: Pharmacokinetics Endpoints: The following PK parameters for compound A were determined in serum and CSF, as appropriate: • Cmax: Maximum compound A concentration determined directly from the concentration-time profile • Tmax: Time of maximum compound A concentration determined directly from the concentration-time profile • AUClast: Area under the concentration-time curve from pre-dose (time 0) to the time of the last quantifiable concentration (tlast) calculated using the linear-log trapezoidal rule • AUCinf: Area under the concentration-time curve from pre-dose (time 0) extrapolated to infinite time (AUClast+Clast/λz) calculated using the linear-log trapezoidal rule • AUC% extrap: Percentage of AUCinf that is due to extrapolation beyond tlast • λz: The terminal elimination rate constant determined by selection of at least 3 data points on the terminal phase of the concentration-time curve. • t1/2: Terminal elimination half-life calculated as: ln 2/λz • CL/F: Apparent body clearance calculated as: Dose/AUCinf • Vz/F: Apparent volume of distribution calculated as: Dose/(AUCinf*λz) • MRT: Mean residence time (of the unchanged drug in the systemic circulation) as: AUMC/AUC • RA (AUC): Accumulation CSF/plasma ratio calculated as the ratios of the AUCinf,ss at steady state and AUCτ,sd after single dosing calculated as: AUCτ,ss/AUCτ,sd • RA (Cmax): Accumulation CSF/plasma ratio calculated as ratio of Cmax,ss at steady state and Cmax,sd after single dosing calculated as: Cmax,ss/Cmax,sd • CSF compound A concentrations over time and the ratio compared with time-matched plasma concentrations were also evaluated Overall Study Design: […]
Pharmacokinetic, Metabolomic, and Proteomic Variables: Blood and CSF samples for the PK, metabolomics, and proteomic analysis of compound A were collected at various time points and were processed and analyzed by a validated method for determining concentrations of compound A.

healthy volunteers = assay: Example 1 Part A: safety and tolerability of single ascending doses in healthy volunteers
Description: Up to approximately 48 healthy volunteers were randomly assigned to double-blind treatment. […] The in-house period was 6 days/5 nights. The duration of each subject's participation was up to 39 days, including screen/washout and follow-up.
The study included standard safety and tolerability assessments—e.g., physical, neurological, and psychiatric examinations, vital signs, oral temperature, respiration rate, weight, 12-lead paper electrocardiograms (pECGs), dECGs, clinical laboratory tests, monitoring of adverse events (AEs) and concomitant medications, and, in Part A of the study, cardiovascular (CV) telemetry and safety EEGs.
Subjects were required to abstain from eating or drinking for two hours prior to and after dosing. • Subjects randomized to receive placebo (purified water and Flavor Sweet-SF™): Single dose placebo was administered orally as a solution on Day 1. Subjects were required to abstain from eating or drinking for two hours prior to and after dosing.
An AE is any unfavorable and unintended sign (including an abnormal laboratory finding), symptom, or disease temporally associated with the use of a medical treatment or procedure, whether or not considered related to the medical treatment or procedure. […] An AE term is a unique representation of a specific event used for medical documentation and scientific analyses.
A TEAE is an AE that either commenced following initiation of study treatment or was present prior to study treatment but increased in frequency or severity following initiation of study treatment.

CC(C)(C[C@H](N)C(=O)O)C(F)F [Compound A, (S)-2-amino-5,5-difluoro-4,4-dimethylpentanoic acid]
uptake into circulation and brain exposure [1]: rapid uptake of compound A into circulation with rapid brain exposure | human CSF levels ([1]; FIG. 8): consistent with rodent levels at the effective dose | half-life ([1]; male, human, in vivo): 10 to 13 h | Number of subjects with ≥1 TEAE (healthy volunteers; all doses Total, N = 36): 13 (36.1) n (%) | TEAE: Abdominal pain (healthy volunteers; all doses Total, N = 36): 1 n (%) | TEAE: Abdominal pain lower (healthy volunteers; all doses Total, N = 36): 1 n (%) | TEAE: Blood creatine phosphokinase increased (healthy volunteers; all doses Total, N = 36): 1 n (%) | TEAE: Dermatitis contact (healthy volunteers; all doses Total, N = 36): 3 n (%) | TEAE: Diarrhea (healthy volunteers; all doses Total, N = 36): 1 n (%) | TEAE: Dizziness (healthy volunteers; all doses Total, N = 36): 4 n (%) | TEAE: Dry mouth (healthy volunteers; all doses Total, N = 36): 1 n (%) | TEAE: Headache (healthy volunteers; all doses Total, N = 36): 2 n (%) | TEAE: Hot flush (healthy volunteers; all doses Total, N = 36): 1 n (%) | TEAE: Lipase increased (healthy volunteers; all doses Total, N = 36): 1 n (%) | TEAE: Nausea (healthy volunteers; all doses Total, N = 36): 3 n (%) | TEAE: Presyncope (healthy volunteers; all doses Total, N = 36): 1 n (%) | TEAE: Somnolence (healthy volunteers; all doses Total, N = 36): 1 n (%) | TEAE: Vomiting (healthy volunteers; all doses Total, N = 36): 1 n (%) | Total number of TEAEs (healthy volunteers; all doses Total, N = 36): 22 n (%) | Number of subjects with ≥1 TEAE (healthy volunteers; single oral 150 mg, N = 6): 2 (33.3) n (%) | TEAE: Abdominal pain lower (healthy volunteers; single oral 150 mg, N = 6): 1 n (%) | TEAE: Dizziness (healthy volunteers; single oral 150 mg, N = 6): 1 n (%) | Total number of TEAEs (healthy volunteers; single oral 150 mg, N = 6): 3 n (%) | Number of subjects with ≥1 TEAE (healthy volunteers; single oral 300 mg, N = 6): 2 (33.3) n (%) | TEAE: Blood creatine phosphokinase increased (healthy volunteers; single oral 300 mg, N = 6): 1 n (%) | TEAE: Lipase increased (healthy volunteers; single oral 300 mg, N = 6): 1 n (%) | Total number of TEAEs (healthy volunteers; single oral 300 mg, N = 6): 2 n (%) | Number of subjects with ≥1 TEAE (healthy volunteers; single oral 600 mg, N = 6): 1 (16.7) n (%) | TEAE: Dizziness (healthy volunteers; single oral 600 mg, N = 6): 1 n (%) | TEAE: Presyncope (healthy volunteers; single oral 600 mg, N = 6): 1 n (%) | Total number of TEAEs (healthy volunteers; single oral 600 mg, N = 6): 1 n (%) | Number of subjects with ≥1 TEAE (healthy volunteers; single oral 1000 mg, N = 6): 1 (16.7) n (%) | TEAE: Dizziness (healthy volunteers; single oral 1000 mg, N = 6): 1 n (%) | Total number of TEAEs (healthy volunteers; single oral 1000 mg, N = 6): 1 n (%) | Number of subjects with ≥1 TEAE (healthy volunteers; single oral 1600 mg, N = 6): 4 (66.7) n (%) | TEAE: Abdominal pain (healthy volunteers; single oral 1600 mg, N = 6): 1 n (%) | TEAE: Dermatitis contact (healthy volunteers; single oral 1600 mg, N = 6): 2 n (%) | TEAE: Diarrhea (healthy volunteers; single oral 1600 mg, N = 6): 1 n (%) | TEAE: Dizziness (healthy volunteers; single oral 1600 mg, N = 6): 2 n (%) | TEAE: Dry mouth (healthy volunteers; single oral 1600 mg, N = 6): 1 n (%) | TEAE: Headache (healthy volunteers; single oral 1600 mg, N = 6): 1 n (%) | TEAE: Nausea (healthy volunteers; single oral 1600 mg, N = 6): 1 n (%) | TEAE: Somnolence (healthy volunteers; single oral 1600 mg, N = 6): 1 n (%) | Total number of TEAEs (healthy volunteers; single oral 1600 mg, N = 6): 10 n (%) | Number of subjects with ≥1 TEAE (healthy volunteers; single oral 2400 mg, N = 6): 3 (50.0) n (%) | TEAE: Dermatitis contact (healthy volunteers; single oral 2400 mg, N = 6): 1 n (%) | TEAE: Headache (healthy volunteers; single oral 2400 mg, N = 6): 1 n (%) | TEAE: Nausea (healthy volunteers; single oral 2400 mg, N = 6): 2 n (%) | TEAE: Vomiting (healthy volunteers; single oral 2400 mg, N = 6): 1 n (%) | Total number of TEAEs (healthy volunteers; single oral 2400 mg, N = 6): 5 n (%) | Vitals, labs, and ECG findings (healthy volunteers; single oral doses 150-2400 mg): unremarkable | maximally tolerated dose (healthy volunteers; single oral doses 150-2400 mg): not reached | safety and tolerability (healthy volunteers; single oral doses 150-2400 mg): well tolerated, with no serious adverse events, and no discontinuations due to adverse events | severity of adverse events (healthy volunteers; single oral doses 150-2400 mg): mild | safety and tolerability (healthy volunteers; single oral doses 150-2400 mg, listed as compound A): generally safe and well tolerated | BPRS+ and CADSS scores (healthy volunteers; single oral doses 150-2400 mg, vs placebo): comparable as between the treatment groups
